# Measurements published in patent publication US12708673B2, “Methods and compositions related to peptides and proteins with c-terminal elements” (Sanford Burnham Prebys Medical Discovery Institute, priority 2008, dated 2026).
# “Also recorded” adds a separate entry of the source.
# Experiments:
# PPC-1 cells [1] = experiment: T7 phage internalization into PPC-1 (PPC1) cells at 37° C. (acid wash and titration, or anti-T7 staining and confocal imaging); assay type: cell-based, human
# Procedure: (§1) FIG. 2A: Binding of T7 phage to prostate cancer cells depends on the display of a C-terminal arginine on the phage particles. PPC1 cells were incubated with T7 bacteriophage displaying derivatives of the G7 (upper graph) or RPARPAR peptide (SEQ ID NO: 2) (lower graph) at 4° C., and the bound phage was quantified by plaque assay. Binding is expressed in fold over of the non-binding G7 control phage. FIG. 2B: Phage displaying C-terminal arginine is internalized into cultured PPC1 cells (arrow, nuclear internalization; arrowhead, cytoplasmic internalization). A panel of T7 phage clones were incubated at 37° C. with PPC1 cells grown on collagen-coated coverslips, stained with anti T7 antibody and imaged by confocal microscopy.
# (§2) Phage display. For in vivo phage display, mice were injected intravenously with 10^10 plaque-forming units (pfu) of T7 phage followed by perfusion of the circulatory system and determination of the bound phage in target organs by titration. For cell binding studies on cultured cells (in vitro display) and organ-derived cell suspensions (ex vivo display), the cells were incubated with 10^9 pfu of phage at 4° C., washed, lysed, and quantified by titration. Incubation at 37° C. followed by low pH wash (glycine-HCl, pH 2.5) was used to assess the amount of internalized phage.
# (§3) For biopanning and phage binding studies (Hoffman, J. A. et al., 2004), cultured cells were grown to confluence and harvested with trypsin and mouse organs were dissociated using Medimachine (BD Biosciences, San Jose, CA). To measure phage binding, 10^6 cells in binding buffer (DMEM containing 1% BSA) were incubated with 10^9 pfu/ml of T7 phage for 1 hour at 4° C. The cells were washed 4 times with the binding buffer, lysed in LB bacterial growth medium containing 1% NP-40, and titrated. Phage internalization assays used the same procedure, except that the cells were incubated with the phage at 37° C., and that an acidic buffer (500 mM sodium chloride, 0.1 M glycine, 1% BSA, pH 2.5) was used instead of binding buffer in the second wash.
# (§4) Centrifugation on a silicone oil cushion (1.03 g/ml) was used to separate unbound phage from cells during time course experiments. Inhibitors of phage binding and internalization (heparin, chondroitin, glycocalyx removal enzymes, endocytosis inhibitors, free peptides, quantum dots and UV-inactivated phage) were added to the cells 20 minutes prior to incubation with phage. Endocytosis inhibitors used in this study were the following: nystatin (50 μg/ml), genistein (100 μg/ml), chlorpromazine (5 μg/ml), 5-(N-ethyl-N-isopropyl) amiloride (100 μM), wortmannin (10 μM).
# Immunofluorescence staining. Cultured cells (2×10^5 cells) were grown in 6-well tissue culture plates on collagen-I coated coverslips (BD Biosciences, San Jose, CA) overnight at 37° C. in 5% CO2, and incubated with 10^8 pfu of T7 phage. The cells were fixed in 4% paraformaldehyde or cold (−20° C.) methanol, and stained with antibodies. Nuclei were stained with DAPI or […]. A polyclonal rabbit anti-T7 antibody was generated in-house as described previously (Laakkonen, P. et al. 2002b), except that an additional phage purification step using […] centrifugation was included. Other primary antibodies used were rat anti-mouse CD31 monoclonal antibody (BD Biosciences), rabbit anti-NRP-1, mouse anti-human Lamp-1, mouse anti-human caveolin (Millipore, Temecula, CA), mouse anti-NRP-1 (Miltenyi Biotec Inc., Auburn, CA), mouse anti-human EEA-1 (BD Biosciences, San Jose, CA). The secondary antibodies, Alexa594 goat antibodies to mouse, rat, and rabbit immunoglobulins and Alexa488 donkey anti-rabbit antibody were from Invitrogen (Carlsbad, CA). Cells and tissue sections were examined by confocal microscopy (Fluoview 500, Olympus America Inc., Center Valley, PA).
# [2] = system: spontaneous pancreatic ductal adenocarcinoma; experiment: Spreading of intravenously injected phage into tumor tissue of transgenic mice bearing pancreatic ductal adenocarcinoma; assay type: in vivo, mouse; settings: 15 min circulation
# Description: The mice were than perfused with PBS containing 1% BSA, and the tumors were harvested. Cryosections of the tumors were stained with an anti-T7 phage antibody, an anti CD31 antibody, and DAPI. […] Staining is denoted by the bright coloring in both panels of FIG. 9.
# pancreatic tumors = experiment: Tumor homing of intravenously injected fluorescamine-labeled iRGD peptide in PDAC mouse; assay type: in vivo; settings: intravenous, 4.5 hrs circulation
# Procedure: Approximately 200 μg of fluorescamine-labeled iRGD peptide was injected into a pancreatic ductal adenocarcinoma (PDAC) mouse through the tail vein, and was allowed to circulate for 4.5 hrs. The organs were harvested and observed under UV light (upper panel). […] T7 phage displaying iRGD peptides (main panel) or CG7C control peptides (right upper window) were incubated with PPC1 cells cultured on collagen-I coated cover slips for 2 hours at 37° C., stained with anti T7 antibody and a plasma membrane marker, and imaged by a confocal microscope.
# cells = experiment: Cell internalization of iRGD compared with other RGD peptides; assay type: cell-based
# NRP-1 = molecular target: T1, NRP-1 (Homo sapiens, UniProt O14786); experiment: Affinity chromatography of PPC-1 tumor extract on immobilized RPARPAR peptide; assay type: binding; settings: 130 kDa protein, MALDI-TOF
# T1 construct: from tissue; host or cells: orthotopic PPC-1 prostate tumor xenografts grown in BALB/c nude mice, extracted with n-octyl-beta-D-glucopyranoside
# Procedure: (§5) FIGS. 18A-18C show the identification and validation of NRP-1 as the CendR receptor. FIG. 18A: Affinity chromatography of proteins interacting with RPARPAR (SEQ ID NO: 2) peptide. PPC-1 tumor tissue was extracted with a 200 mM glucopyranoside buffer, and the extract was incubated with RPARPAR-coated (SEQ ID NO:2) beads, followed by extensive washes, and elution with 2 mM free RPARPAR (SEQ ID NO:2) peptide. Note appearance of a 130 kDa band, identified by mass spectroscopy as NRP-1, starting in the fraction 3 of the eluate. Upper panel—a silver stained gel, lower panel—an immunoblot with anti-NRP-1 antibody. FIG. 18B: Binding of RPARPAR (SEQ ID NO:2) phage to M21 melanoma cells transiently transfected with wild-type NRP-1 (NRP-1), triple mutant NS346A-E348A-T349A NRP-1 (Mutant NRP-1), or parental pcDNA3.1plasmid (Vector), and to non-transfected M21 cells. FIG. 18C: (c, d), Confocal immunofluorescence images of NRP-1 and RPARPAR (SEQ ID NO:2) T7 phage in PPC-1 cells incubated with phage at 37° C. for 40 minutes (c) and 3 hours (d). The phage and NRP-1 co-localize extensively, but there appears to be a progressive decrease in the overlap (arrowheads in c and d) and appearance of structures positive for the phage only (arrows, d). (e) Immunostaining and confocal imaging of RPARPAR (SEQ ID NO:2) phage and NRP-1 in M21 cells transiently transfected with NRP-1. […]
# PPC-1 cells [3] = experiment: T7 phage binding to PPC-1 (PPC1) cells at 4° C., quantified by titration/plaque assay; assay type: cell-based, human
# Procedure: as §1, §2, §3, §4
# PPC-1 cells [4] = experiment: Protease treatment of phage followed by phage binding assay on PPC-1 cells at 4° C.; assay type: cell-based, human
# Procedure: 5×10^8 phage particles were incubated with indicated volumes of 2.5% trypsin at 37° C. for 20 min, followed by incubation of the phage with 1×10^6 PPC1 cells at 4° C. for 3 hours. Binding is expressed as fold over non-binding G7 control phage (the internalization of which was not affected by the trypsin treatment).
# 10^9 pfu of RPARPARA (SEQ ID NO:3) phage was treated with indicated amounts of trypsin at 37° C. followed by phage binding assay at 4° C. The data are representative of 4 independent binding experiments.
# FIGS. 20A-20C show urokinase dependent CendR peptide. FIG. 20A: The design of a uPA-activatable CendR peptide (uCendR). […] Statistical analysis was performed with ANOVA (b); n=3; error bars indicate s.d.; triple asterisk, p<0.001. Scale bars: 20 μm.
# as §3
# Protease treatment of phage and qdots. 10^9 phage particles or 50 μl of peptide-coated qdots phage were treated with 50 iu of uPA, 25 μg of crystalline trypsin, 50 iu of thrombin, or 25 μg of collagenase type I (all Sigma, St. Louis, Mo).
# wild-type NRP-1 = molecular target: T2, wild-type NRP-1 (Homo sapiens, UniProt O14786); experiment: Phage binding and internalization in M21 melanoma cells transiently transfected with wild-type NRP-1; assay type: cell-based
# T2 construct: expressed in transfected cells; host or cells: M21 melanoma cells, transient transfection with lipofectamine; pcDNA3.1(+) construct, gift of Dr. Michael Klagsbrun
# Procedure: as §5
# T2 sequence (O14786 22-923): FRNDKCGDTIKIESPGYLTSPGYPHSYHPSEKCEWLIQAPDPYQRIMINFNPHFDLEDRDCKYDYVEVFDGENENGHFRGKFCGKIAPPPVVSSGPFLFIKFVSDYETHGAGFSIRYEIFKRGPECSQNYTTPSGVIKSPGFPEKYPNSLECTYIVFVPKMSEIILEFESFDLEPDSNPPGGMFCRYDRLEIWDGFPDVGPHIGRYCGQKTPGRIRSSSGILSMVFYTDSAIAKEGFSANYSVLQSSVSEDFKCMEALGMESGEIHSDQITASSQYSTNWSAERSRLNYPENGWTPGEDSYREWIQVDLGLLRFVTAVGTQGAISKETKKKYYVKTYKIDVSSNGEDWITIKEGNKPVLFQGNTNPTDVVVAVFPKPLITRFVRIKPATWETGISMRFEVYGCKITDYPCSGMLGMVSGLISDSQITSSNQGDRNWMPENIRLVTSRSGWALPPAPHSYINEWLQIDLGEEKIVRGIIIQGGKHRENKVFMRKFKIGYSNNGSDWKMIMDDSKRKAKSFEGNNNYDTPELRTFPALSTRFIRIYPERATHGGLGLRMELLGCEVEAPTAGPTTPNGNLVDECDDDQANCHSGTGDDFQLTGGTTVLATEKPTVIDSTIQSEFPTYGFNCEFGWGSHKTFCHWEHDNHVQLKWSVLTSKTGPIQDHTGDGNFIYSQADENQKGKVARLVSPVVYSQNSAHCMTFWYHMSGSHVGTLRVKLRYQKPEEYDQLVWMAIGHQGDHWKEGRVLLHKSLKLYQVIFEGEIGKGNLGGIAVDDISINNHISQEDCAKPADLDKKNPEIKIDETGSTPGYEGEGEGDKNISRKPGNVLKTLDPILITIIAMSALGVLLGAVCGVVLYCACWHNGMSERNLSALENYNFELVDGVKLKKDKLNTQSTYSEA
# T1 sequence (O14786 22-923): as above
substance,measurement,setting,value
CRGDKGPDC [iRGD phage],Phage internalization into PPC-1 cells (in words),PPC-1 cells [1]; 37° C.,internalizes extensively into the tumor cells
same,Distribution of phage in pancreatic tumor tissue,[2],extensively taken up by the tumor cells forming the pancreatic tumor ducts
CRGDKGPDC [iRGD peptide],Tumor homing,pancreatic tumors,strong tumor homing; also recorded: homes to pancreatic tumors
same,Internalization into cells relative to other RGD peptides,cells,more strongly internalized into cells than any other RGD peptide
RPARPAR (REAGENT) [RPARPAR peptide],"Effect of unlabelled peptide in binding buffer on binding and internalization of VEGF-C7, enhanced tuftsin and A7R phage",PPC-1 cells [1],reduced
same,Protein released from immobilized peptide by elution with free RPARPAR peptide,NRP-1,NRP-1
RPARPARA [RPARPARA phage],Phage binding to PPC-1 cells (in words),PPC-1 cells [3]; 4° C.,abolished the binding
same,"Cell binding, fold over G7-displaying phage","PPC-1 cells [3]; PPC1 cells, without trypsin treatment",2.8 fold
same,Increase of phage binding to cells by trypsin treatment of the phage,"PPC-1 cells [4]; phage incubated with trypsin at 37° C., binding at 4° C.",more than 100 fold
same,Effect of trypsin treatment of phage on binding (in words),PPC-1 cells [4]; trypsin,restored
same,Phage binding and internalization by M21 cells with forced expression of NRP-1,wild-type NRP-1,is not internalized
